Assay results taken from ChEMBL document CHEMBL4130451, “Design and Synthesis of N-Aryl Phenoxyethoxy Pyridinones as Highly Selective and CNS Penetrant mGlu3 NAMs” (ACS Med Chem Lett, 2017).
The source made the active and inactive calls. The calls are words filed in the database; no cut-off is given here.

Tests used:
[1] = biological target: Metabotropic glutamate receptor 3 (Rattus norvegicus, UniProt P31422); experiment: (§1) Negative allosteric modulation of rat mGlu3 receptor expressed in TREX cells coexpressing Galpha15 assessed as inhibition of glutamate induced-calcium mobilization preincubated for 2.3 mins followed by glutamate addition measured for 2.6 mins by Fluo-4 AM dye based fluorescence assay; format: functional, cell-based
Chain of Metabotropic glutamate receptor 3 (P31422 whole entry): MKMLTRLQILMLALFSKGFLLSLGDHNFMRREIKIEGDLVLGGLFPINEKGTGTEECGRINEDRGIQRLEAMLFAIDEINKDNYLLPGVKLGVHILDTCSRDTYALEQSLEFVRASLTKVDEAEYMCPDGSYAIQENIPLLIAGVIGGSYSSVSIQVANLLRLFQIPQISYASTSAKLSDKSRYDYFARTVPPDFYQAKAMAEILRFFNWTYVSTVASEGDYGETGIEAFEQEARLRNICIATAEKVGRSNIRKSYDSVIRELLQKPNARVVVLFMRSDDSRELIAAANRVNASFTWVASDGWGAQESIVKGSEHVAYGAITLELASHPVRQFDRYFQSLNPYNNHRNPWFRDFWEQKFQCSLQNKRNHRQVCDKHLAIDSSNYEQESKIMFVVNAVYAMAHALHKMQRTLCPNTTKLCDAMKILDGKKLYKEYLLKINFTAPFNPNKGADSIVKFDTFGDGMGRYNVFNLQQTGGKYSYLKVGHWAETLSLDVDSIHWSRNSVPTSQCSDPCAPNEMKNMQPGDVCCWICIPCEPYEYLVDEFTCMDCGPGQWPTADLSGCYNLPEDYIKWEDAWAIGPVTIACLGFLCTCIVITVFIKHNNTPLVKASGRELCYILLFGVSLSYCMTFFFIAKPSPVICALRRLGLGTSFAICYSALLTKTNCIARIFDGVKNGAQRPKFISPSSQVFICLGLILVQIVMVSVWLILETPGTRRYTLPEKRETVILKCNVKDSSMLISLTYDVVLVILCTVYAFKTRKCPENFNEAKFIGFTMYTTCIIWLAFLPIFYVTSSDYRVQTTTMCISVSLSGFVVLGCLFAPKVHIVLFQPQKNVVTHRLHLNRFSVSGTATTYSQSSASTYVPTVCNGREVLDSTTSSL

[2] = biological target: Metabotropic glutamate receptor 3 (Rattus norvegicus) (UniProt P31422); experiment: as §1, with “mobilization by measuring minimum glutamate response” for “mobilization”, “assay relative to glutamate” for “assay”; format: functional, cell-based
Chain of Metabotropic glutamate receptor 3 (Rattus norvegicus) (P31422 23-879 limits assumed): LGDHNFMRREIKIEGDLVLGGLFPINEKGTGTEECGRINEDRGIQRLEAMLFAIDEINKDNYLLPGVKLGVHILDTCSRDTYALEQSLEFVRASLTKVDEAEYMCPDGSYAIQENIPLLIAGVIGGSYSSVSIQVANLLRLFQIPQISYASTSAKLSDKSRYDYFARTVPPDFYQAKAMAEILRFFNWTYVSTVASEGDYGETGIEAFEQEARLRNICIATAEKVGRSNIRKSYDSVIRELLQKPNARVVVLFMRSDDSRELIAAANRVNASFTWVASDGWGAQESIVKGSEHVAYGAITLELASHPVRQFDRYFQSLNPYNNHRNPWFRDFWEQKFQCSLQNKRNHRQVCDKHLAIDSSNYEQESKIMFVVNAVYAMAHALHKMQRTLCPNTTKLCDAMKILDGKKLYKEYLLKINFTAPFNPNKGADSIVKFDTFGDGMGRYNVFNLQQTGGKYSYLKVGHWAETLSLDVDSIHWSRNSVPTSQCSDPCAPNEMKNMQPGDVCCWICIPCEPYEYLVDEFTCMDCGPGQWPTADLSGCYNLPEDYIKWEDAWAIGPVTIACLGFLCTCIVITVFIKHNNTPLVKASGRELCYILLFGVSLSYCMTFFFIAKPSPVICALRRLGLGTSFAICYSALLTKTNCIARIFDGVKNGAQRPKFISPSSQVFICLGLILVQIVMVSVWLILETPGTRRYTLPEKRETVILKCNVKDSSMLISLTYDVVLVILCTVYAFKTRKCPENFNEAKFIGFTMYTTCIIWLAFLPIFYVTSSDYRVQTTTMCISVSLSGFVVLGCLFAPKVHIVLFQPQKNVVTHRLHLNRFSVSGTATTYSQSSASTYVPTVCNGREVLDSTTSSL

[3] = biological target: Metabotropic glutamate receptor 5 (Rattus norvegicus, UniProt P31424); experiment: (§2) Positive allosteric modulation of rat mGlu5 receptor expressed in HEK293A cells assessed as increase in glutamate induced-calcium mobilization preincubated for 2.3 mins followed by glutamate addition measured for 1.9 mins by Fluo-4 AM dye based fluorescence assay; format: functional, cell-based
Chain of Metabotropic glutamate receptor 5 (P31424 whole entry): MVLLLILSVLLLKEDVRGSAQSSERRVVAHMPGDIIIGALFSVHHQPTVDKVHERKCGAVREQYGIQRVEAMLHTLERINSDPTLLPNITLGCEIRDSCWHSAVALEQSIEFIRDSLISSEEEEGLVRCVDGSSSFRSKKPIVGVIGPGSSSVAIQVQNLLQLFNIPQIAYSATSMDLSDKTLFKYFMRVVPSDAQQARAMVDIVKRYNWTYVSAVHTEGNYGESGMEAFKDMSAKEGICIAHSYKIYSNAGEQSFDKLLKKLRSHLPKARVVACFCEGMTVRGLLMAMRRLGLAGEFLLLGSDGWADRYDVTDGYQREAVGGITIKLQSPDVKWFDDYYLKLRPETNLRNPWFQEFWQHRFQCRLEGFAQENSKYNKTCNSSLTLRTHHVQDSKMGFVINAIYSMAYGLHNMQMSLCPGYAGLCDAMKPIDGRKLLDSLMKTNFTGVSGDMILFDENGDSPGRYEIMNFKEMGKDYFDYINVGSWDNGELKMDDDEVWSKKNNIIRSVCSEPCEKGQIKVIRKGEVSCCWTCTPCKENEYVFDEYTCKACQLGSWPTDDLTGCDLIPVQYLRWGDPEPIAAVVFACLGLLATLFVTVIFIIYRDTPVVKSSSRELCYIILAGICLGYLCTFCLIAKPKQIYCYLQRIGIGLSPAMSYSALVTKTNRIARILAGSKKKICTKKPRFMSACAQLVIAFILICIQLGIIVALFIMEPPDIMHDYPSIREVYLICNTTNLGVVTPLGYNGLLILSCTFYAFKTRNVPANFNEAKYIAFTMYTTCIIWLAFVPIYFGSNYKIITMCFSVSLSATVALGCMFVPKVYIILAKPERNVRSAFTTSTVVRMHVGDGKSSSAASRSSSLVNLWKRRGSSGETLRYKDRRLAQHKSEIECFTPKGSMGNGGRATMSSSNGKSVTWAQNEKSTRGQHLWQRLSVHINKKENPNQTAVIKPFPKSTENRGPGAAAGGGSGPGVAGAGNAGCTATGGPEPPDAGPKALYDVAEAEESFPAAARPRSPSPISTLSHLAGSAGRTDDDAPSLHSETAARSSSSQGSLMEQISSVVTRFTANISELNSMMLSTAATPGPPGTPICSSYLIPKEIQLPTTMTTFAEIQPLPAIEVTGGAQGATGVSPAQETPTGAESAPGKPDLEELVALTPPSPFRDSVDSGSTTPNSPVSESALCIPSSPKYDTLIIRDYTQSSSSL

[4] = biological target: Metabotropic glutamate receptor 5 (Rattus norvegicus) (UniProt P31424); experiment: as §2, with “mobilization by measuring maximum glutamate response” for “mobilization”, “assay relative to glutamate” for “assay”; format: functional, cell-based
Chain of Metabotropic glutamate receptor 5 (Rattus norvegicus) (P31424 21-1203 limits assumed): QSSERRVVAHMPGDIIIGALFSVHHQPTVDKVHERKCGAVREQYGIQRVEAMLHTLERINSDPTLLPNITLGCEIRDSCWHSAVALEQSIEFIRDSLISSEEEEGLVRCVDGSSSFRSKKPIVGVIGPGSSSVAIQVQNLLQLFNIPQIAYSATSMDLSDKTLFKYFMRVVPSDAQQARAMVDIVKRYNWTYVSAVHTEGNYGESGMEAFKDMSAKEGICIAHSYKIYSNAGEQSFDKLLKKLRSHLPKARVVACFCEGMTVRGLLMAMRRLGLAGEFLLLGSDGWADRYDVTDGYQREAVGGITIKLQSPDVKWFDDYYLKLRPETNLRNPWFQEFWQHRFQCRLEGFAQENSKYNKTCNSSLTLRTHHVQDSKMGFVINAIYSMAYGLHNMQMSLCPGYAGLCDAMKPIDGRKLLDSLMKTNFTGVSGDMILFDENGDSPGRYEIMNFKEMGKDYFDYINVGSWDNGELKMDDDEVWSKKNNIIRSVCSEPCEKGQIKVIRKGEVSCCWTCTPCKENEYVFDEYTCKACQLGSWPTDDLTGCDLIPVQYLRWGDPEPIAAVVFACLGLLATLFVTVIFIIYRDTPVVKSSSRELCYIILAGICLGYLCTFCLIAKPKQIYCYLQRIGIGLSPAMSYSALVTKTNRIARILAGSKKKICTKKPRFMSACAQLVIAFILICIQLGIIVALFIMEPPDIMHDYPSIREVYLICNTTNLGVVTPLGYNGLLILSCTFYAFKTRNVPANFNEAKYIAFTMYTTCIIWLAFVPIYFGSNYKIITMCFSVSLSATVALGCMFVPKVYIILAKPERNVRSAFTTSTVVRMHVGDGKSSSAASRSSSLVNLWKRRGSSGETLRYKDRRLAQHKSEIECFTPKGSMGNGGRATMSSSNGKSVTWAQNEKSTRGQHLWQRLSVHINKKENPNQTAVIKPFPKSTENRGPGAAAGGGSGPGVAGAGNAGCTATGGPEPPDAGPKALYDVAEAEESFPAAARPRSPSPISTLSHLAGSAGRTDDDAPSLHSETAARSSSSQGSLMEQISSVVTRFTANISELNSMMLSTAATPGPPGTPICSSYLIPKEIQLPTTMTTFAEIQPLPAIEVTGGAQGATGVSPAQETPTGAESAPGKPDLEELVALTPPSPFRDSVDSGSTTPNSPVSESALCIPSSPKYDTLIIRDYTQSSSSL

[5] = biological target: Metabotropic glutamate receptor 2 (Rattus norvegicus, UniProt P31421); experiment: Negative allosteric modulation of rat mGlu2 receptor expressed in HEK293 cells coexpressing Galpha15 assessed as inhibition of glutamate induced-calcium mobilization preincubated for 2.3 mins followed by glutamate addition measured for 1.9 mins by Fluo-4 AM dye based fluorescence assay; format: functional, cell-based
Chain of Metabotropic glutamate receptor 2 (P31421 whole entry, looked up): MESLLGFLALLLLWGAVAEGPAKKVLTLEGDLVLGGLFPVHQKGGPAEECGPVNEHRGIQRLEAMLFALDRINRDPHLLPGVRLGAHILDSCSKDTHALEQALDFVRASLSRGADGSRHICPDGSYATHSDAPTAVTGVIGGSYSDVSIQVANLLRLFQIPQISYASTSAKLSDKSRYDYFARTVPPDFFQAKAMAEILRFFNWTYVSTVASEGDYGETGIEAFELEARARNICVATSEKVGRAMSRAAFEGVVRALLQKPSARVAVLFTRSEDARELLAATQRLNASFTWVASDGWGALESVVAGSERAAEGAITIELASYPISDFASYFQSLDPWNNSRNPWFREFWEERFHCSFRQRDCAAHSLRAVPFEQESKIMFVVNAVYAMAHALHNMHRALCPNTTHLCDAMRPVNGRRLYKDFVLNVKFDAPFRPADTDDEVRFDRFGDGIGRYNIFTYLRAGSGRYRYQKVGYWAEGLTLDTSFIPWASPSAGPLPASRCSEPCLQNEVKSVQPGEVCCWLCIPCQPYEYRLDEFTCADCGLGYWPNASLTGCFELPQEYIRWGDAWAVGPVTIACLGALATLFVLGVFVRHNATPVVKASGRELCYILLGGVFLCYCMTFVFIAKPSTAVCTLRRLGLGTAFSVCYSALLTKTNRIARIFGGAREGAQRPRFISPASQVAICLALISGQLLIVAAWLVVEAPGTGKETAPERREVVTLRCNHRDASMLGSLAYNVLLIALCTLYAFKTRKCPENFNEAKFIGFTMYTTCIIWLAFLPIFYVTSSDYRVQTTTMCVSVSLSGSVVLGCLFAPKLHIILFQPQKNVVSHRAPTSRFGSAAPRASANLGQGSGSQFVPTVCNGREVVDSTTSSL

[6] = Fraction unbound in rat plasma at 5 uM after 4 hrs by equilibrium dialysis based LC/MS/MS analysis; format: ADME, cell-free
[7] = species on record: Rattus norvegicus; experiment: Selectivity ratio of EC50 for positive allosteric modulation of rat mGlu5 receptor expressed in HEK293A cells to IC50 for negative allosteric modulation of rat mGlu3 receptor expressed in TREX cells coexpressing Galpha15; format: cell-based
[8] = biological target: Cytochrome P450 3A4 (Homo sapiens, UniProt P08684); experiment: Inhibition of CYP3A4 in human liver microsomes using midazolam as substrate after 15 mins in presence of NADPH by LC/MS/MS analysis; format: ADME
[9] = biological target: Cytochrome P450 2D6 (Homo sapiens, UniProt P10635); experiment: Inhibition of CYP2D6 in human liver microsomes using dextromethorphan as substrate after 15 mins in presence of NADPH by LC/MS/MS analysis; format: ADME
[10] = biological target: Cytochrome P450 2C9 (Homo sapiens, UniProt P11712); experiment: Inhibition of CYP2C9 in human liver microsomes using diclofenac as substrate after 15 mins in presence of NADPH by LC/MS/MS analysis; format: ADME
[11] = biological target: Cytochrome P450 1A2 (Homo sapiens, UniProt P05177); experiment: Inhibition of CYP1A2 in human liver microsomes using phenacetin as substrate after 15 mins in presence of NADPH by LC/MS/MS analysis; format: ADME
[12] = Fraction unbound in human plasma at 5 uM after 4 hrs by equilibrium dialysis based LC/MS/MS analysis; format: ADME, cell-free
[13] = Fraction unbound in rat brain homogenate at 5 uM after 6 hrs by equilibrium dialysis based LC/MS/MS analysis; format: ADME, tissue-based
[14] = Brain to plasma partition coefficient, Kp of the compound in rat; format: ADME
[15] = Unbound brain-to-plasma concentration ratio in rat; format: ADME; conditions: read-out: K(p,uu,brain)
[16] = tested on: Mus musculus; experiment: Antidepressant activity in CD-1 mouse assessed as reduction in immobility time at 30 mg/kg administered ip 15 mins prior to test measured for 6 mins by tail suspension test; format: functional, organism-based
[17] = Ratio of drug uptake in Harlan CD-1 mouse brain at 3 mg/kg, ip to IC50 for negative allosteric modulation of rat mGlu2 receptor expressed in HEK293 cells coexpressing Galpha15; format: ADME, organism-based; conditions: in vivo
[18] = tested on: Mus musculus; experiment: Antidepressant activity in CD-1 mouse assessed as reduction in immobility time up to 30 mg/kg administered ip 15 mins prior to test measured for 6 mins by tail suspension test; format: functional, organism-based
[19] = Drug uptake in Harlan CD-1 mouse brain at 3 mg/kg, ip by LC/MS-MS analysis; format: ADME, organism-based; conditions: in vivo, read-out: Drug uptake

Compound	IC50 [1] [nM]	Emin [2] [%]	EC50 [3] [nM]	Emax [4] [%]	also measured
O=c1cc(OCCOc2ccccc2)ccn1-c1ccc(F)cc1	930	2.69	560	97	–
C[C@H](COc1ccn(-c2ccc(F)cc2)c(=O)c1)Oc1ccccc1	> 30000	–	–	–	IC50 [5]: > 30000 nM
O=c1cc(OCCOc2ncccc2Cl)ccn1-c1ccc(F)cc1	450	3.62	–	94	–
O=c1cc(OCCOc2cc(Cl)ccn2)ccn1-c1ccc(F)cc1	1450	3.77	–	82	–
O=c1nc(OCCOc2ccccc2)ccn1-c1ccc(F)cc1	290	3.94	–	97	IC50 [5]: > 30000 nM; fraction unbound at 4 h, 5 µM [6]: 0.16
N#Cc1cc(F)cc(-n2ccc(OCCOc3ccccc3)cc2=O)c1	270	3.39	–	27	–
N#Cc1cccc(-n2ccc(OCCOc3ccccc3)cc2=O)c1	340	3.63	–	87	Selectivity ratio [7]: 18
O=c1cc(OCCOc2ccccc2)ccn1-c1ccc(F)c(F)c1	180	3.53	340	91	–
O=c1nc(OCCOc2ccccc2)ccn1-c1cccc(F)c1	> 10000	15.5	–	77	–
CC(COc1ccn(-c2ccc(F)cc2)c(=O)c1)Oc1ccccc1 (stereo not drawn)	1230	3.57	> 30000	–	IC50 [8]: > 30000 nM; IC50 [9]: > 30000 nM; IC50 [10]: > 30000 nM; IC50 [11]: > 30000 nM; fraction unbound at 4 h, 5 µM [6]: 0.04; fraction unbound at 4 h, 5 µM [12]: 0.1; fraction unbound at 6 h, 5 µM [13]: 0.05; Kp [14]: 1.7; Kp uu [15]: 1.3
CNC1(c2ccccc2Cl)CCCCC1=O (stereo not drawn)	–	–	–	–	Activity [16]: Active
O=c1cc(OCCOc2ccccc2)ccn1-c1cccc(F)c1	390	3.45	1900	88	–
O=c1cc(OCCOc2cccc(F)c2)ccn1-c1ccc(F)cc1	350	3.56	1500	93	–
Cn1ccc(COc2cnc(C(N)=O)cc2-c2ccc(F)cc2)n1	–	–	–	–	Ratio [17]: 180; Activity [18]: inactive; concentration [19]: 14 µM
O=c1nc(OCCOc2ccccc2)ccn1-c1ccc(F)c(F)c1	1020	3.77	–	83	–
